Source: PMC11161644, “An effective and rapidly degradable disinfectant from disinfection byproducts” (Nature Communications, 2024)
Several values for one entry are separate records, joined by “and”; a condition that tells them apart may be missing. Equal entries are not always repeated. Where two headings read alike, the source gives them in different places. Blank lines part the entries; values can stand above or below the molecule they belong to.

Legend:
[1] = tested on: E. coli (ATCC 25922); assay: Inactivation of E. coli by disinfectants (membrane filter enumeration, contact time 5 min); type: cell-based, Escherichia coli; settings: for log reduction at 500 µg/mL / EC (3-log inactivation) / log reduction at 115 µg/mL / log reduction at 200 µg/mL: Escherichia coli, ATCC25922, 5 min; for log reduction at 500 µg/mL: dose 500 mg L-1; for log reduction at 500 µg/mL / log reduction at 115 µg/mL / log reduction at 200 µg/mL: 5 min, read-out: Log (N/N0); for log reduction at 115 µg/mL: dose 115 mg L-1; for log reduction at 200 µg/mL: dose 200 mg L-1
Method: (§1) The chemicals and reagents used are detailed in Supplementary Note 1. The bacteria E. coli (ATCC 25922) and S. aureus (ATCC 25923) were cultured aerobically in Luria-Bertani broth (Sigma-Aldrich) and Tryptone Soya broth (Oxoid), respectively, at 37 °C for 16 h. The fungus C. albicans (ATCC 14053) was aerobically cultured in Sabouraud Dextrose broth (Difco) at 37 °C for 24 h. The microorganism cells were harvested by centrifugation at 1200×g (10 min, 4 °C) and resuspended in phosphate-buffered saline (PBS, 10 mM, pH 7.2). The disinfection experiments were performed in PBS solutions (10 mM, pH 7.2) with an initial concentration of E. coli, S. aureus, or C. albicans of 10^6‒10^7 cells per milliliter. A contact time of 5 min was used in accordance with the recommended time range of 0.25–10 min by USEPA for surface disinfection. Preliminary tests were conducted to determine the appropriate range of DBP doses. The appropriate dose range was established when the lowest and highest doses could achieve <1-log and >3-log of microbial inactivation, respectively. Based on the preliminary results, a series of doses of DBPs were added to the cell suspensions at room temperature (22 ± 1 °C). After the contact time of 5 min, the microorganism cells were enumerated following a membrane filter method. Briefly, serial 10-fold dilutions were conducted for the disinfected samples and the control sample without disinfection. Each diluted suspension was subjected to filtration through 0.45-μm membrane, which was then placed on a petri dish. The Petri dishes containing E. coli, S. aureus, and C. albicans were incubated in m-FC medium (Becton Dickinson & Co) at 45 °C for 24 h, in Tryptone Soya broth at 37 °C for 24 h and in Sabouraud Dextrose broth at 37 °C for 24 h, respectively. After incubation, the colony-forming units within a statistically reasonable range (20–80) were counted.
The impact of pH on the disinfection efficiencies of DBPs was examined. E. coli (ATCC 25922) was used as the test strain. The disinfection experiments were performed in 10 mM PBS solutions (pH 6.2, 7.2, and 8.2) with an initial E. coli concentration of 10^6‒10^7 cells per milliliter. To initiate the disinfection, a DBP was dosed with a bacteria suspension at a predetermined concentration. After the given contact time (5 min) at room temperature (22 ± 1 °C), the bacteria were enumerated following the membrane filter method. The bacteria concentrations in the 10 mM PBS solutions (pH 6.2, 7.2, and 8.2) without the addition of DBPs were used as controls.

[2] = tested on: S. aureus (ATCC 25923); assay: Inactivation of S. aureus (contact time 5 min); type: cell-based, Staphylococcus aureus; settings: for log reduction at 300 µg/mL: Staphylococcus aureus, ATCC25923, 5 min, pH 7.2, S. aureus, dose 300 mg L-1, pH 7.2, contact time 5 min, read-out: Log (N/N0); for Dose for achieving 3-log inactivation of S. aureus / S. aureus inactivation rate constant k: pH 7.2, contact time 5 min
Method: as §1

[3] = Degradation in seawater with simulated solar irradiation
Method: The solar photolysis experiments were conducted in a chamber equipped with eight simulated sunlight full-spectrum lamps (BlueMax 5900, Full Spectrum Solutions). The temperature in the chamber was maintained at 20 °C. The total intensity of simulated sunlight was determined using a digital photometer (DT-1010B, Shenzhen Golden Octopus, China). Quartz flasks were positioned in the chamber where the total intensity of simulated sunlight was 4.79 ± 0.04 mW cm^−2 for each quartz flask. […] A DBP was added at 10 mg L^−1 to 50 mL pretreated seawater (pH 8.2) in the quartz flasks and exposed to the simulated solar irradiation for 0‒96 h. Every 8 h, the quartz flasks were rotated in and out of the chamber, and the sample volume was determined and adjusted with ultrapure water to account for any water evaporation. During the solar irradiation experiments, the sample was adjusted to pH 6.2 and 7.2 or maintained at pH 8.2 by adding 4 mM phosphate buffer (pH 6.2, 7.2, and 8.2, respectively).
(§2) For the DBP samples with and without sunlight, aliquots were taken at a specific reaction time. The sample aliquots were analyzed using Agilent high-performance liquid chromatography (HPLC) equipped with a Poroshell 120 EC-C18 column (4.6 × 150 mm, 4 µm particle size, Agilent) and a UV detector. The mobile phase, consisting of water (pre-adjusted to pH 2 with phosphoric acid) and acetonitrile at 50/50 (v/v), was applied at a flow rate of 1.0 mL min^−1. PCMX, 2,4-dihalophenols and 5-halosalicylic acids were detected at the wavelength of 230 nm. 2,5-Dihalohydroquinones and 2,6-DCQ were detected at the wavelength of 280 nm. All the degradation experiments were conducted in duplicate.

[4] = Degradation in seawater in darkness (pH 6.2, 7.2, 8.2)
Method: To study the DBP degradation in seawater in darkness, a DBP was added at 10 mg L^−1 to 50 mL pretreated seawater (pH 8.2) in the quartz flasks. The flasks were wrapped with aluminum foil to simulate the dark condition. The samples were kept at 20 °C in darkness for 0‒120 h, during which the sample was adjusted to pH 6.2 and 7.2 or maintained at pH 8.2 by adding 4 mM phosphate buffer (pH 6.2, 7.2, and 8.2, respectively).
as §2

[5] = pH 7.2, contact time 5 min, read-out: Dose for achieving 3-log inactivation of E. coli
[6] = pretreated seawater under simulated solar irradiation, pH 8.2
[7] = seawater pH 8.2, solar irradiation, 0 h

half-life at 10 mg L−1 [3, 6]: 0.16 h
Ln (C/C0) ([3]; seawater pH 8.2, solar irradiation, 0 min): 0
Relative concentration remaining (1 at 0 min) ([4]; pH 6.2, degradation time 0 min): 1
Relative concentration remaining (1 at 0 min) ([4]; pH 6.2, degradation time 15 min): 1.009 and 0.9751
Relative concentration remaining (1 at 0 min) ([4]; pH 6.2, degradation time 30 min): 1.028 and 0.9729
Relative concentration remaining (1 at 0 min) ([4]; pH 6.2, degradation time 60 min): 1.02 and 0.9831
Relative concentration remaining (1 at 0 min) ([4]; pH 6.2, degradation time 90 min): 0.9778 and 1.02
Relative concentration remaining (1 at 0 min) ([4]; pH 6.2, degradation time 120 min): 1 and 0.9297
Relative concentration remaining (1 at 0 min) ([4]; pH 6.2, degradation time 180 min): 0.9306 and 0.9617
Relative concentration remaining (1 at 0 min) ([4]; pH 6.2, degradation time 240 min): 0.9273 and 0.981
Relative concentration remaining (1 at 0 min) ([4]; pH 7.2, degradation time 0 min): 1
Relative concentration remaining (1 at 0 min) ([4]; pH 7.2, degradation time 15 min): 1.0017 and 0.9494
Relative concentration remaining (1 at 0 min) ([4]; pH 7.2, degradation time 30 min): 1.002 and 0.9365
Relative concentration remaining (1 at 0 min) ([4]; pH 7.2, degradation time 45 min): 0.934 and 0.9212
Relative concentration remaining (1 at 0 min) ([4]; pH 7.2, degradation time 60 min): 0.9213 and 0.886
Relative concentration remaining (1 at 0 min) ([4]; pH 7.2, degradation time 90 min): 0.8145 and 0.7791
Relative concentration remaining (1 at 0 min) ([4]; pH 7.2, degradation time 120 min): 0.7145 and 0.6664
Relative concentration remaining (1 at 0 min) ([4]; pH 7.2, degradation time 180 min): 0.5609 and 0.5354
Relative concentration remaining (1 at 0 min) ([4]; pH 8.2, degradation time 0 min): 1
Relative concentration remaining (1 at 0 min) ([4]; pH 8.2, degradation time 3 min): 0.721 and 0.687
Relative concentration remaining (1 at 0 min) ([4]; pH 8.2, degradation time 8 min): 0.4796 and 0.4372
Relative concentration remaining (1 at 0 min) ([4]; pH 8.2, degradation time 12 min): 0.4155 and 0.3689
Relative concentration remaining (1 at 0 min) ([4]; pH 8.2, degradation time 16 min): 0.2998 and 0.2743
Relative concentration remaining (1 at 0 min) ([4]; pH 8.2, degradation time 20 min): 0.2215 and 0.1988
Relative concentration remaining (1 at 0 min) ([4]; pH 8.2, degradation time 25 min): 0.1592 and 0.1253
half-life at 10 mg L−1 ([4]; pretreated seawater in darkness, pH 8.2): 0.16 h
Ln (C/C0) ([4]; seawater pH 8.2, darkness, 0 min): 0
Compound: Oc1cc(I)c(O)cc1I [2,5-DIHQ, 2,5-diiodohydroquinone]
log reduction at 500 µg/mL ([1]; pH 6.2, E. coli, pH 6.2): 1.76
log reduction at 500 µg/mL ([1]; pH 7.2, E. coli, pH 7.2): 3.66
log reduction at 500 µg/mL ([1]; pH 8.2, E. coli, pH 8.2): 5.5
EC (3-log inactivation) [1, 5]: 459 µg/mL
E. coli inactivation rate constant k ([1]; pH 7.2, contact time 5 min): 0.13 L mg‒1 h‒1
log reduction at 300 µg/mL [2]: 0.792

Compound: Oc1ccc(I)cc1I [2,4-DIPh, 2,4-diiodophenol]
log reduction at 115 µg/mL ([1]; pH 6.2, E. coli, pH 6.2): 3.33
log reduction at 115 µg/mL ([1]; pH 7.2, E. coli, pH 7.2): 2.77
log reduction at 115 µg/mL ([1]; pH 8.2, E. coli, pH 8.2): 3.02
EC (3-log inactivation) [1, 5]: 112 µg/mL
E. coli inactivation rate constant k ([1]; pH 7.2, contact time 5 min): 0.79 L mg‒1 h‒1
log reduction at 300 µg/mL [2]: 4.49
half-life at 10 mg L−1 ([3]; buffer, pH 8.2): 83 h
Ln (C/C0) [3, 7]: 0
Ln (C/C0) ([4]; seawater pH 8.2, darkness, 0 h): 0
Ln (C/C0) ([4]; seawater pH 8.2, darkness, 24 h): 0.00447 and 0.004669
Ln (C/C0) ([4]; seawater pH 8.2, darkness, 48 h): 0.01674 and 0.0143

Compound: O=C1C=C(Cl)C(=O)C(Cl)=C1 [2,6-DCQ, 2,6-dichlorobenzoquinone]
Disinfection efficiency relative to PCMX (ratio of doses for 3-log inactivation) ([1]; E. coli, S. aureus, C. albicans and MS2, pH 7.2, 5 min): 9.0–22 times
Log reduction (Mean ± SD) ([1]; E. coli, dose 7.5 mg L−1, pH 7.2, contact time 5 min): 0.76 ± 0.16
Log reduction (Mean ± SD) ([1]; E. coli, dose 15 mg L−1, pH 7.2, contact time 5 min): 4.24 ± 0.22
EC (3-log inactivation) ([1]; pH 7.2, read-out: Dose for achieving 3-log inactivation of E. coli): 12.8 µg/mL
E. coli inactivation rate constant k ([1]; pH 7.2, contact time 5 min): 5.50 L mg‒1 h‒1
Dose for achieving 3-log inactivation of S. aureus [2]: 28.6 mg L−1
S. aureus inactivation rate constant k [2]: 20200 µL/min/mg
half-life at 10 mg L−1 ([3]; buffer, pH 6.2): 4.13 h
half-life at 10 mg L−1 ([3]; buffer, pH 7.2): 3.2 h
half-life at 10 mg L−1 ([3]; buffer, pH 8.2): 1.33 h
Degradation rate constant k ([3]; pH 6.2, with solar irradiation): 0.168 h⁻¹
Ln (C/C0) ([3]; pH 6.2 with solar irradiation, 0 h): 0
Degradation rate constant k ([3]; pH 7.2, with solar irradiation): 0.217 h⁻¹
Ln (C/C0) ([3]; pH 7.2 with solar irradiation, 0 h): 0
Ln (C/C0) [3, 7]: 0
Degradation rate constant k ([3]; seawater pH 8.2, with solar irradiation): 0.520 h‒1
half-life at 10 mg L−1 ([4]; buffer, pH 6.2): 76.2 h
half-life at 10 mg L−1 ([4]; buffer, pH 7.2): 13.4 h
half-life at 10 mg L−1 ([4]; buffer, pH 8.2): 1.74 h
Degradation rate constant k ([4]; pH 6.2, without solar irradiation): 0.009 h⁻¹
Ln (C/C0) ([4]; pH 6.2 in darkness, 0 h): 0
Ln (C/C0) ([4]; pH 7.2 in darkness, 0 h): 0
Ln (C/C0) ([4]; seawater pH 8.2, darkness, 0 h): 0
Degradation rate constant k ([4]; seawater pH 8.2, without solar irradiation): 0.397 h‒1

Compound: Cc1cc(O)cc(C)c1Cl [PCMX, para-chloro-meta-xylenol, reference compound]
log reduction at 200 µg/mL ([1]; pH 6.2, E. coli, pH 6.2): 4.19
log reduction at 200 µg/mL ([1]; pH 7.2, E. coli, pH 7.2): 3.54
log reduction at 200 µg/mL ([1]; pH 8.2, E. coli, pH 8.2): 5.56
EC (3-log inactivation) [1, 5]: 188 µg/mL
E. coli inactivation rate constant k ([1]; pH 7.2, contact time 5 min): 0.66 L mg‒1 h‒1
log reduction at 300 µg/mL [2]: 3.04
Dose for achieving 3-log inactivation of S. aureus [2]: 308 mg L−1
S. aureus inactivation rate constant k [2]: 3670 µL/min/mg
half-life at 10 mg L−1 [3, 6]: 257 h
Ln (C/C0) [3, 7]: 0
half-life at 10 mg L−1 ([4]; pretreated seawater in darkness): ~5760 h
Ln (C/C0) ([4]; seawater pH 8.2, darkness, 0 h): 0
Degradation in 120 h ([4]; seawater, absence of sunlight): less than 5%
